{
  "source": "patent US10669268B2",
  "about": "“Bicyclic derivatives” (Hoffmann-La Roche Inc., priority 2012, dated 2020)",
  "target": "ATX (human His-tagged) (Homo sapiens (Human), UniProt Q13822)",
  "test": "Human ATX enzyme inhibition assay (fluorescence quenching, MR121 substrate)",
  "format": "biochemical",
  "settings": "30 nM ATX, 1 μM MR121 substrate, 30° C., pH 8.0",
  "protocol": "Human ATX Enzyme Inhibition Assay\nAssay working solutions were made as follows:\nAssay buffer (50 mM Tris-HCl, 140 mM NaCl, 5 mM KCl, 1 mM CaCl2, 1 mM MgCl2, 0.01% Triton-X-100, pH 8.0;\nMR121 substrate solution: MR121 substrate stock solution (800 μM MR121 substrate in DMSO), diluted to 2-5× final concentration in assay buffer.\n10 μL of MR121 substrate solution was added (1 μM final concentration), mixed 30 times and then incubated for 15 minutes at 30° C.",
  "data": [
    {"compound": "O=C(CCc1cc(Cl)cc(Cl)c1)N1C[C@@H]2CN(C(=O)c3ccc4[nH]c(=O)oc4c3)C[C@@H]2C1", "note": "[Example 1.02, 6-((3aR,6aS)-5-(3-(3,5-dichlorophenyl)propanoyl)octahydropyrrolo[3,4-c]pyrrole-2-carbonyl)benzo[d]oxazol-2(3H)-one]", "values": [
      {"measurement": "IC50", "value": 77, "unit": "nM"}
    ]},
    {"compound": "O=C(OCc1cc(Cl)cc(Cl)c1)N1C[C@@H]2CN(C(=O)c3ccc4[nH]nnc4c3)C[C@@H]2C1", "note": "[Example 1.03, (3aR,6aS)-3,5-dichlorobenzyl 5-(1H-benzo[d][1,2,3]triazole-5-carbonyl)hexahydropyrrolo[3,4-c]pyrrole-2(1H)-carboxylate]", "values": [
      {"measurement": "IC50", "value": 25, "unit": "nM"}
    ]},
    {"compound": "O=C(OCc1cc(Cl)cc(Cl)c1)N1C[C@@H]2CN(C(=O)c3cc4c(cn3)[nH]c3ccccc34)C[C@@H]2C1", "note": "[Example 1.04, (3aR,6aS)-3,5-dichlorobenzyl 5-(9H-pyrido[3,4-b]indole-3-carbonyl)hexahydropyrrolo[3,4-c]pyrrole-2(1H)-carboxylate]", "values": [
      {"measurement": "IC50", "value": 127, "unit": "nM"}
    ]},
    {"compound": "O=C(OCc1cc(Cl)cc(Cl)c1)N1C[C@@H]2CN(C(=O)c3ccc4[nH]ccc4c3)C[C@@H]2C1", "note": "[Example 1.05, (3aR,6aS)-3,5-dichlorobenzyl 5-(1H-indole-5-carbonyl)hexahydropyrrolo[3,4-c]pyrrole-2(1H)-carboxylate]", "values": [
      {"measurement": "IC50", "value": 90, "unit": "nM"}
    ]},
    {"compound": "O=C(OCc1cc(Cl)cc(Cl)c1)N1C[C@@H]2CN(C(=O)c3ccc4[nH]c5ccccc5c4c3)C[C@@H]2C1", "note": "[Example 1.06, (3aR,6aS)-3,5-dichlorobenzyl 5-(9H-carbazole-3-carbonyl)hexahydropyrrolo[3,4-c]pyrrole-2(1H)-carboxylate]", "values": [
      {"measurement": "IC50", "value": 255, "unit": "nM"}
    ]},
    {"compound": "O=C(OCc1cc(Cl)cc(Cl)c1)N1C[C@@H]2CN(C(=O)c3ccc4[nH]ncc4c3)C[C@@H]2C1", "note": "[Example 1.07, (3aR,6aS)-3,5-dichlorobenzyl 5-(1H-indazole-5-carbonyl)hexahydropyrrolo[3,4-c]pyrrole-2(1H)-carboxylate]", "values": [
      {"measurement": "IC50", "value": 1030, "unit": "nM"}
    ]},
    {"compound": "O=C(OCc1cc(Cl)cc(Cl)c1)N1C[C@@H]2CN(C(=O)c3ccc4[nH]cnc4c3)C[C@@H]2C1", "note": "[Example 1.08, (3aR,6aS)-3,5-dichlorobenzyl 5-(1H-benzo[d]imidazole-5-carbonyl)hexahydropyrrolo[3,4-c]pyrrole-2(1H)-carboxylate]", "values": [
      {"measurement": "IC50", "value": 503, "unit": "nM"}
    ]},
    {"compound": "O=C(OCc1cc(Cl)cc(Cl)c1)N1CC[C@@H]2CN(C(=O)c3ccc4[nH]nnc4c3)C[C@@H]2CC1", "note": "[Example 1.11, (3aR,8aS)-3,5-dichlorobenzyl 2-(1H-benzo[d][1,2,3]triazole-5-carbonyl)octahydropyrrolo[3,4-d]azepine-6(7H)-carboxylate]", "values": [
      {"measurement": "IC50", "value": 4, "unit": "nM"}
    ]},
    {"compound": "O=C(c1ccc2[nH]nnc2c1)N1C[C@@H]2CN(S(=O)(=O)CCc3cccc(Cl)c3)C[C@@H]2C1", "note": "[Example 1.12, (1H-benzotriazol-5-yl)-{(3aS,6aR)-5-[2-(3-chloro-phenyl)-ethanesulfonyl]-hexahydro-pyrrolo[3,4-c]pyrrol-2-yl}-methanone]", "values": [
      {"measurement": "IC50", "value": 9260, "unit": "nM"}
    ]},
    {"compound": "O=C(OCc1cc(Cl)cc(Cl)c1)N1C[C@@H]2CN(C(=O)C3CCc4[nH]nnc4C3)C[C@@H]2C1", "note": "(stereo partly drawn) [Example 1.13, (3aR,6aS)-3,5-dichlorobenzyl 5-(4,5,6,7-tetrahydro-1H-benzo[d][1,2,3]triazole-5-carbonyl)hexahydropyrrolo[3,4-c]pyrrole-2(1H)-carboxylate]", "values": [
      {"measurement": "IC50", "value": 226, "unit": "nM"}
    ]},
    {"compound": "CC(C)(Cc1cccc(Cl)c1)C(=O)N1CC[C@@H]2CN(C(=O)c3ccc4[nH]nnc4c3)C[C@@H]2CC1", "note": "[Example 1.14, 1-((3aR,8aS)-2-(1H-benzo[d][1,2,3]triazole-5-carbonyl)octahydropyrrolo[3,4-d]azepin-6(7H)-yl)-3-(3-chlorophenyl)-2,2-dimethylpropan-1-one]", "values": [
      {"measurement": "IC50", "value": 810, "unit": "nM"}
    ]},
    {"compound": "O=C(/C=C/c1ccc(OC(F)(F)F)c(F)c1)N1CC[C@@H]2CN(C(=O)c3ccc4[nH]nnc4c3)C[C@@H]2CC1", "note": "[Example 1.15, (E)-1-((3aR,8aS)-2-(1H-benzo[d][1,2,3]triazole-5-carbonyl)octahydropyrrolo[3,4-d]azepin-6(7H)-yl)-3-(3-fluoro-4-(trifluoromethoxy)phenyl)prop-2-en-1-one]", "values": [
      {"measurement": "IC50", "value": 1, "unit": "nM"}
    ]},
    {"compound": "O=C(/C=C/c1ccc(OC(F)(F)F)cc1)N1CC[C@@H]2CN(C(=O)c3ccc4nonc4c3)C[C@@H]2CC1", "note": "[Example 1.17, (E)-1-[(3aS,8aR)-2-(benzo[c][1,2,5]oxadiazole-5-carbonyl)-octahydro-pyrrolo[3,4-d]azepin-6-yl]-3-(4-trifluoromethoxy-phenyl)-prop-2-en-1-one]", "values": [
      {"measurement": "IC50", "value": 651, "unit": "nM"}
    ]},
    {"compound": "Cc1cc(OC(F)(F)F)ccc1/C=C/C(=O)N1CC[C@@H]2CN(C(=O)c3ccc4[nH]nnc4c3)C[C@@H]2CC1", "note": "[Example 1.18, (E)-1-((3aR,8aS)-2-(1H-benzo[d][1,2,3]triazole-5-carbonyl)octahydropyrrolo[3,4-d]azepin-6(7H)-yl)-3-(2-methyl-4-(trifluoromethoxy)phenyl)prop-2-en-1-one]", "values": [
      {"measurement": "IC50", "value": 10, "unit": "nM"}
    ]},
    {"compound": "COc1ccc(/C=C/C(=O)N2CC[C@@H]3CN(C(=O)c4ccc5[nH]nnc5c4)C[C@@H]3CC2)cc1F", "note": "[Example 1.19, (E)-1-((3aR,8aS)-2-(1H-benzo[d][1,2,3]triazole-5-carbonyl)octahydropyrrolo[3,4-d]azepin-6(7H)-yl)-3-(3-fluoro-4-methoxyphenyl)prop-2-en-1-one]", "values": [
      {"measurement": "IC50", "value": 12, "unit": "nM"}
    ]},
    {"compound": "O=C(/C=C/c1ccc(OC(F)(F)F)cc1)N1CC[C@@H]2CN(C(=O)[C@H]3CCc4[nH]nnc4C3)C[C@@H]2CC1", "note": "[Example 1.20, (E)-1-[(3aS,8aR)-2-((S)-4,5,6,7-tetrahydro-1H-benzotriazole-5-carbonyl)-octahydro-pyrrolo[3,4-d]azepin-6-yl]-3-(4-trifluoromethoxy-phenyl)-prop-2-en-1-one]", "values": [
      {"measurement": "IC50", "value": 83, "unit": "nM"}
    ]},
    {"compound": "O=C(/C=C/c1ccc(OC(F)(F)F)cc1)N1CC[C@@H]2CN(C(=O)[C@@H]3CCc4[nH]nnc4C3)C[C@@H]2CC1", "note": "[Example 1.21, (E)-1-[(3aS,8aR)-2-((R)-4,5,6,7-tetrahydro-1H-benzotriazole-5-carbonyl)-octahydro-pyrrolo[3,4-d]azepin-6-yl]-3-(4-trifluoromethoxy-phenyl)-prop-2-en-1-one]", "values": [
      {"measurement": "IC50", "value": 5, "unit": "nM"}
    ]},
    {"compound": "CC(C)c1ccccc1/C=C/C(=O)N1CC[C@@H]2CN(C(=O)c3ccc4[nH]nnc4c3)C[C@@H]2CC1", "note": "[Example 1.22, (E)-1-[(3aS,8aR)-2-(1H-benzotriazole-5-carbonyl)-octahydro-pyrrolo[3,4-d]azepin-6-yl]-3-(2-isopropyl-phenyl)-prop-2-en-1-one]", "values": [
      {"measurement": "IC50", "value": 9, "unit": "nM"}
    ]},
    {"compound": "O=C(/C=C/c1cc(Cl)cc(C(F)(F)F)c1)N1CC[C@@H]2CN(C(=O)c3ccc4[nH]nnc4c3)C[C@@H]2CC1", "note": "[Example 1.27, (E)-1-((3aR,8aS)-2-(1H-benzo[d][1,2,3]triazole-5-carbonyl)octahydropyrrolo[3,4-d]azepin-6(7H)-yl)-3-(3-chloro-5-(trifluoromethyl)phenyl)prop-2-en-1-one]", "values": [
      {"measurement": "IC50", "value": 8, "unit": "nM"}
    ]},
    {"compound": "COc1ccc(/C=C/C(=O)N2CC[C@@H]3CN(C(=O)c4ccc5[nH]nnc5c4)C[C@@H]3CC2)c(C(F)(F)F)c1", "note": "[Example 1.28, (E)-1-((3aR,8aS)-2-(1H-benzo[d][1,2,3]triazole-5-carbonyl)octahydropyrrolo[3,4-d]azepin-6(7H)-yl)-3-(4-methoxy-2-(trifluoromethyl)phenyl)prop-2-en-1-one]", "values": [
      {"measurement": "IC50", "value": 6, "unit": "nM"}
    ]},
    {"compound": "O=C(/C=C/c1ccccc1C1CC1)N1CC[C@@H]2CN(C(=O)c3ccc4[nH]nnc4c3)C[C@@H]2CC1", "note": "[Example 1.29, (E)-1-((3aR,8aS)-2-(1H-benzo[d][1,2,3]triazole-5-carbonyl)octahydropyrrolo[3,4-d]azepin-6(7H)-yl)-3-(2-cyclopropylphenyl)prop-2-en-1-one]", "values": [
      {"measurement": "IC50", "value": 8, "unit": "nM"}
    ]},
    {"compound": "O=C(COc1ccccc1OC(F)(F)F)N1CC[C@@H]2CN(C(=O)c3ccc4[nH]nnc4c3)C[C@@H]2CC1", "note": "[Example 1.32, 1-[(3aS,8aR)-2-(1H-benzotriazole-5-carbonyl)-octahydro-pyrrolo[3,4-d]azepin-6-yl]-2-(2-trifluoromethoxy-phenoxy)-ethanone]", "values": [
      {"measurement": "IC50", "value": 40, "unit": "nM"}
    ]},
    {"compound": "Cc1cc(OCC(=O)N2CC[C@@H]3CN(C(=O)c4ccc5[nH]nnc5c4)C[C@@H]3CC2)c(C(C)C)cc1Cl", "note": "[Example 1.35, 1-[(3aS,8aR)-2-(1H-benzotriazole-5-carbonyl)-octahydro-pyrrolo[3,4-d]azepin-6-yl]-2-(4-chloro-2-isopropyl-5-methyl-phenoxy)-ethanone]", "values": [
      {"measurement": "IC50", "value": 10, "unit": "nM"}
    ]},
    {"compound": "Cc1ccc(OCC(=O)N2CC[C@@H]3CN(C(=O)c4ccc5[nH]nnc5c4)C[C@@H]3CC2)c(C2CCN(C)C2)c1", "note": "(stereo partly drawn) [Example 1.36, 1-[(3aS,8aR)-2-(1H-benzotriazole-5-carbonyl)-octahydro-pyrrolo[3,4-d]azepin-6-yl]-2-[4-methyl-2-(1-methyl-pyrrolidin-3-yl)-phenoxy]-ethanone]", "values": [
      {"measurement": "IC50", "value": 7460, "unit": "nM"}
    ]},
    {"compound": "O=C(COc1ccc(C(F)(F)F)cc1Cl)N1CC[C@@H]2CN(C(=O)c3ccc4[nH]nnc4c3)C[C@@H]2CC1", "note": "[Example 1.38, 1-((3aR,8aS)-2-(1H-benzo[d][1,2,3]triazole-5-carbonyl)octahydropyrrolo[3,4-d]azepin-6(7H)-yl)-2-(2-chloro-4-(trifluoromethyl)phenoxy)ethanone]", "values": [
      {"measurement": "IC50", "value": 10, "unit": "nM"}
    ]},
    {"compound": "CC(C)c1cc2c(cc1OCC(=O)N1CC[C@@H]3CN(C(=O)c4ccc5[nH]nnc5c4)C[C@@H]3CC1)C(C)(C)CC2", "note": "[Example 1.39, 1-((3aR,8aS)-2-(1H-benzo[d][1,2,3]triazole-5-carbonyl)octahydropyrrolo[3,4-d]azepin-6(7H)-yl)-2-(6-isopropyl-3,3-dimethyl-2,3-dihydro-1H-inden-5-yloxy)ethanone]", "values": [
      {"measurement": "IC50", "value": 7, "unit": "nM"}
    ]}
  ]
}
